Results taken from patent US20240131168A1, “NAPHTHALENE RING-CONTAINING COMPOUND, PHARMACEUTICAL COMPOSITION CONTAINING SAME, AND USE THEREOF” (JIANGSU YAHONG MEDITECH CO., LTD., priority 2021, published 2024).
Read-outs that look alike come from different tables or passages of the source.

Experiments:
Assay type in all cases: cell-based
TamR-MCF-7 = test: CellTiter-Glo cell proliferation inhibition, TamR-MCF-7; details: 144 h; TamR-MCF-7 (CTG), 6 days, starting concentration 10 μM; read-out: IH % max (maximum inhibition percentage)
Excerpt: (§1) 1. Cell line • (1) Breast cancer cell lines and their culture media: • MCF-7 (ATCC; Cat. No.: HTB-22), a Luminal A breast cancer cell; • TamR-MCF-7 (ATCC; Cat. No.: CRL-3435), a breast cancer cell; • MCF-7 ER^D538G: a Luminal A breast cancer cell obtained by constructing MCF-7 (ATCC; Cat. No.: HTB-22) using CRISPR-Cas9 gene editing technology; • MCF-7 ER^Y537S: a Luminal A breast cancer cell obtained by constructing MCF-7 (ATCC; Cat. No.: HTB-22) using CRISPR-Cas9 gene editing technology; • MDA-MB-231: (manufacturer: Nanjing CoBioer Biosciences Co., Ltd.), a triple-negative breast cancer cell; • MDA-MB-468: (manufacturer: Nanjing CoBioer Biosciences Co., Ltd.), a triple-negative breast cancer cell.
(§2) Herein, the culture medium of MCF-7, TamR-MCF-7, MCF-7 ER^D538G, and MCF-7 ER^Y537S was EMEM; • the culture medium of MDA-MB-231 and MDA-MB-468 was DMEM.
(§3) 2. Reagents • Culture medium EMEM (Gibco, 1964507) • Culture medium DMEM (Gibco, 12430-054) • Fetal bovine serum (Gibco, 10091148) • Penicillin-streptomycin double antibody (Gibco, S110JV) • DPBS (Gibco, 14190-144) • CellTiter-Glo® assay kit (Promega, G7573) • Trypsin (0.25%) (Gibco, 25200-056) • DMSO (Sigma, D2650)
(§4) 3. Instruments • Biosafety cabinet (AIRTECH, BSC-1300A II) • Automated cell counter (Life Technologies, countess II) • Multifunctional microplate reader (Biotek, H1FM) • Orbital shaker (Hangzhou Allsheng Instruments Co., Ltd., OS-100) • XLFIT 5.3 (Inforstack Shanghai Co., Ltd.)
(§5) For this test method, the following experiments were performed in a biosafety cabinet, with the specific steps as follows: • (1) Cells were inoculated in a 96-well plate. One day later, the previous culture medium was poured off, 5 mL of DPBS was added to wash the cells, and then DPBS was pipetted and discarded. An appropriate amount of trypsin was then added. The plate was digested in a 37° C., 5% CO2 cell incubator for about 2 to 5 minutes and then taken out. Anew corresponding culture medium was added, and pipetted up and down to resuspend the cells evenly. The cells were then counted using an automated cell counter. • (2) Each cell was inoculated in columns 1 to 11 of a 96-well plate (Corning, Cat. No.: 3610) at a density of 1,000 or 2,000 cells per well in 100 μL of culture medium, and 100 μL of the corresponding culture medium without cells was added to the wells in column 12. The plate was then placed in a 37° C., 5% CO2 incubator for 24 hours. • (3) The compound of the present disclosure and the control drug fulvestrant (Selleck; Cat. No.: S1191) were then 4-fold serially diluted to 10 dose points starting at 10 μM. 10 μL of the serially diluted compound was pipetted and added to 100 μL of cells in columns 1 to 10, and 10 μL of the corresponding culture medium containing 0.33 v % DMSO was added to both columns 11 and 12. The plate was incubated in a 37° C., 5% CO2 incubator for 6 days or 72 hours (Note: column 11 was used as a MAX well with cells but without compound; column 12 was used as a MIN well without cells […]). • (4) The cell viability detection reagent in the CellTiter-Glo® assay kit was then added to the 96-well plate at 50 μL per well according to the instructions, and shaken on an orbital shaker in the dark for 5 to 10 minutes. The cell viability was then measured using a multifunctional microplate reader. Finally, the inhibition of cell proliferation by the compound of the present disclosure was plotted by XLFIT software, and the IC50 value (half inhibitory concentration) and the IH % max (maximum inhibition percentage) of the compound of the present disclosure were calculated.

MCF-7 ER^Y537S = test: CellTiter-Glo cell proliferation inhibition, MCF-7 ER^Y537S; details: Homo sapiens, MCF7, 144 h; MCF-7 ER^Y537S (CTG), 6 days, starting concentration 10 μM; read-out: IH % max (maximum inhibition percentage)
Excerpt: as §1, §2, §3, §4, §5

MDA-MB-468 = test: CellTiter-Glo cell proliferation inhibition, MDA-MB-468; details: Homo sapiens, MDA-MB-468 (CTG), starting concentration 10 μM; for inhibition at up to 10 µM: read-out: IH % max (maximum inhibition percentage)
Excerpt: as §1, §2, §3, §4, §5
(§6) Compounds D64 to D69 were tested for MDA-MB-231 (CTG) and MDA-MB-468 (CTG) with an incubation time of 72 hours in the incubator.

MCF-7 ER^D538G = test: CellTiter-Glo cell proliferation inhibition, MCF-7 ER^D538G; details: Homo sapiens, MCF7, 144 h, MCF-7 ER^D538G (CTG), 6 days, starting concentration 10 μM; for inhibition at up to 10 µM: read-out: IH % max (maximum inhibition percentage)
Excerpt: as §1, §2, §3, §4, §5

MCF-7 = test: CellTiter-Glo cell proliferation inhibition, MCF-7 (Effect Example 2); details: Homo sapiens, MCF7, 144 h; MCF-7 (CTG), 6 days, starting concentration 10 μM; read-out: IH % max (maximum inhibition percentage)
Excerpt: as §1, §2, §3, §4, §5

MDA-MB-231 = test: CellTiter-Glo cell proliferation inhibition, MDA-MB-231; details: Homo sapiens, MDA-MB-231 (CTG), starting concentration 10 μM; for inhibition at up to 10 µM: read-out: IH % max (maximum inhibition percentage)
Excerpt: as §1, §2, §3, §4, §5, §6

[1] = incubation time 72 hours (D64 to D69)

Compound	inhibition at up to 10 µM (TamR-MCF-7) [%]	inhibition at up to 10 µM (MCF-7 ER^Y537S) [%]	inhibition at up to 10 µM (MDA-MB-468; 144 h, 6 days) [%]	IC50 (MCF-7 ER^D538G) [nM]	inhibition at up to 10 µM (MCF-7 ER^D538G) [%]	inhibition at up to 10 µM (MCF-7) [%]	inhibition at up to 10 µM (MDA-MB-231; 144 h, 6 days) [%]	IC50 (MDA-MB-468; [1]) [nM]	inhibition at up to 10 µM (MDA-MB-468; [1]) [%]	IC50 (MDA-MB-231; [1]) [nM]	inhibition at up to 10 µM (MDA-MB-231; [1]) [%]
CCN(CCOCCOCCOCCNc1cccc2c1C(=O)N(C1CCC(=O)NC1=O)C2=O)CCOc1ccc(Oc2c(-c3ccc(S(C)(=O)=O)cc3)ccc3cc(O)ccc23)cc1 (stereo not shown) [Compound D39, 2-(2,6-dioxopiperidin-3-yl)-4-((3-ethyl-1-(4-((6-hydroxy-2-(4-(methylsulfonyl)phenyl)naphthalen-1-yl)oxy)phenoxy)-6,9,12-trioxa-3-azatetradecan-14-yl)amino)isoindoline-1,3-dione]	32	48	51	158	73	35	–	–	–	–	–
CS(=O)(=O)c1ccc(-c2ccc3cc(O)ccc3c2Oc2ccc(N3CCN(CC(=O)N4CCN(c5ccc6c(c5)CN(C5CCC(=O)NC5=O)C6=O)CC4)CC3)cc2)cc1 (stereo not shown) [Compound D12, 3-(5-(4-(2-(4-(4-((6-hydroxy-2-(4-(methylsulfonyl)phenyl)naphthalen-1-yl)oxy)phenyl)piperazin-1-yl)acetyl)piperazin-1-yl)-1-oxoisoindolin-2-yl)piperidine-2,6-dione]	–	–	–	761	68	45	37	–	–	–	–
CN(C)C(=O)c1ccc(-c2ccc3ccccc3c2Oc2ccc(OCCN3CCN(c4ccc5c(c4)CN(C4CCC(=O)NC4=O)C5=O)CC3)cc2)cc1 (stereo not shown) [Compound D68, 4-(1-(4-(2-(4-(2-(2,6-dioxopiperidin-3-yl)-1-oxoisoindolin-5-yl)piperazin-1-yl)ethoxy)phenoxy)naphthalen-2-yl)-N,N-dimethylbenzamide]	–	–	–	–	–	–	–	35.4	59.3	44.2	71.5
CNC(=O)c1ccc(-c2ccc3cc(O)ccc3c2Oc2ccc(OCCN3CCN(c4ccc5c(c4)CN(C4CCC(=O)NC4=O)C5=O)CC3)cc2)cc1 (stereo not shown) [Compound D64, 4-(1-(4-(2-(4-(2-(2,6-dioxopiperidin-3-yl)-1-oxoisoindolin-5-yl)piperazin-1-yl)ethoxy)phenoxy)-6-hydroxynaphthalen-2-yl)-N-methylbenzamide]	–	–	–	–	–	–	–	19.3	87	9.8	79.8
CS(=O)(=O)c1ccc(-c2ccc3ccccc3c2Oc2ccc(OC(=O)N3CCN(c4ccc5c(c4)CN(C4CCC(=O)NC4=O)C5=O)CC3)cc2)cc1 (stereo not shown) [Compound D66, 4-((2-(4-(methylsulfonyl)phenyl)naphthalen-1-yl)oxy)phenyl 4-(2-(2,6-dioxopiperidin-3-yl)-1-oxoisoindolin-5-yl)piperazine-1-carboxylate]	–	–	–	–	–	–	–	2.2	90.6	1.4	85.4
CCN(CCOc1ccc(Oc2c(-c3ccc(S(C)(=O)=O)cc3)ccc3cc(O)ccc23)cc1)CC(=O)N1CCN(c2ccc3c(c2)CN(C2CCC(=O)NC2=O)C3=O)CC1 (stereo not shown) [Compound D7, 3-(5-(4-(N-ethyl-N-(2-(4-((6-hydroxy-2-(4-(methylsulfonyl)phenyl)naphthalen-1-yl)oxy)phenoxy)ethyl)glycyl)piperazin-1-yl)-1-oxoisoindolin-2-yl)piperidine-2,6-dione]	47	60	63	–	40	49	–	–	–	–	–
CN(C)C(=O)c1ccc(-c2ccc3ccccc3c2Oc2ccc(OC(=O)N3CCN(c4ccc5c(c4)CN(C4CCC(=O)NC4=O)C5=O)CC3)cc2)cc1 (stereo not shown) [Compound D67, 4-((2-(4-(dimethylcarbamoyl)phenyl)naphthalen-1-yl)oxy)phenyl 4-(2-(2,6-dioxopiperidin-3-yl)-1-oxoisoindolin-5-yl)piperazine-1-carboxylate]	–	–	–	–	–	–	–	4.4	83.6	3.7	79.2
CNC(=O)c1ccc(-c2ccc3ccccc3c2Oc2ccc(OC(=O)N3CCN(c4ccc5c(c4)CN(C4CCC(=O)NC4=O)C5=O)CC3)cc2)cc1 (stereo not shown) [Compound D69, 4-((2-(4-(methylcarbamoyl)phenyl)naphthalen-1-yl)oxy)phenyl 4-(2-(2,6-dioxopiperidin-3-yl)-1-oxoisoindolin-5-yl)piperazine-1-carboxylate]	–	–	–	–	–	–	–	2.7	92.8	2.2	91.7
O=C1CCC(N2Cc3cc(N4CCN(CCOc5ccc(Oc6c(-c7ccc(C(=O)N8CCCC8)cc7)ccc7cc(O)ccc67)cc5)CC4)ccc3C2=O)C(=O)N1 (stereo not shown) [Compound D65, 3-(5-(4-(2-(4-((6-hydroxy-2-(4-(pyrrolidine-1-carbonyl)phenyl)naphthalen-1-yl)oxy)phenoxy)ethyl)piperazin-1-yl)-1-oxoisoindolin-2-yl)piperidine-2,6-dione]	–	–	–	–	–	–	–	29	83.6	3.6	83.6
CCN(CCOCCOCCNc1cccc2c1CN(C1CCC(=O)NC1=O)C2=O)CCOc1ccc(Oc2c(-c3ccc(S(C)(=O)=O)cc3)ccc3cc(O)ccc23)cc1 (stereo not shown) [Compound D26, 3-(4-((2-(2-(2-(ethyl(2-(4-((6-hydroxy-2-(4-(methylsulfonyl)phenyl)naphthalen-1-yl)oxy)phenoxy)ethyl)amino)ethoxy)ethoxy)ethyl)amino)-1-oxoisoindolin-2-yl)piperidine-2,6-dione]	35	43	37	–	75	55	–	–	–	–	–
CCN(CCOCCOCCN1CCN(c2cccc3c2CN(C2CCC(=O)NC2=O)C3=O)CC1)CCOc1ccc(Oc2c(-c3ccc(S(C)(=O)=O)cc3)ccc3cc(O)ccc23)cc1 (stereo not shown) [Compound D40]	31	61	71	–	72	34	–	–	–	–	–
